In publication PMC6154339, “Synthesis, Characterization, Antimicrobial and Antiproliferative Activity Evaluation of Cu(II), Co(II), Zn(II), Ni(II) and Pt(II) Complexes with Isoniazid-Derived Compound” (Molecules : A Journal of Synthetic Chemistry and Natural …, 2017):
In brackets after ≈: the same amount, converted by molar mass. Like-named read-outs stand apart in the source and are kept apart here.

Assays:
[1] = system: Daphnia magna
[2] = system: A375 human melanoma cell line; assay: Alamar blue cell viability assay; format: cell-based; conditions: 48 h treatment, 10 µM, relative to untreated control
Procedure: (§1) Compounds HL, 1, 5, 6 and 8 were dissolved in dimethyl sulfoxide (DMSO; Sigma-Aldrich, Ayrshire, UK) and stored at 2–8 °C. Compounds 2, 3, 4 and 7 were dissolved in pyridine (Fluka, Munich, Germany). A stock solution of 10 mM in the proper solvents was prepared; as for the final concentration (10 µM), successive dilution of the stock solution with culture medium was made.
(§2) The breast cancer cell lines were cultured as follow: MCF-7 human breast cancer cell line (ATCC, Rockville, MD, USA) was cultured in EMEM (Sigma Aldrich, Munich, Germany) supplemented with 10% FCS (fetal bovine serum, PromoCell, Heidelberg, Germany), 1% penicillin-streptomycin (Pen/Strep, 10,000 IU/mL; PromoCell, Heidelberg, Germany), 1% nonessential amino acids and 1% glutamine (PromoCell, Heidelberg, Germany). SKBR-3 human breast cancer cell line was cultured in McCoy’s 5a Medium Modified (Sigma Aldrich, Munich, Germany) supplemented with 10% FCS (fetal bovine serum, PromoCell, Heidelberg, Germany), 1% penicillin-streptomycin (Pen/Strep, 10,000 IU/mL; PromoCell, Heidelberg, Germany). A375 human melanoma cell line was cultured in DMEM containing 15% FCS (fetal bovine serum, PromoCell, Heidelberg, Germany) and 1% penicillin-streptomycin (Pen/Strep, 10,000 IU/mL; PromoCell, Heidelberg, Germany). Cells were maintained at an atmosphere of 5% CO2 at 37 °C. NCI-H1573 lung adenocarcinoma cell line was cultured in RPMI-1640 Medium (ATCC, Rockville, MD, USA) supplemented with 10% FCS (fetal bovine serum, PromoCell, Heidelberg, Germany), 1% penicillin-streptomycin (Pen/Strep, 10,000 IU/mL; PromoCell, Heidelberg, Germany).
(§3) All tested cell lines were seeded onto a 96-well microplate ([…]) and left overnight to attach to the bottom of the well. After 24 h, the amount of 150 μL of the tested substances dissolved into the culture medium was added and cells were incubated for 48 h. After the incubation period, a volume of 15 μL of the Alamar blue (BioSource, Camarillo, CA, USA) solution was added. After another 10 h of incubation at 37 °C, the samples were spectrophotometrically analyzed using a microplate reader. The wave lengths used were 570 nm and 600 nm, respectively. Wells with untreated cells were used as controls. The highest concentration of DMSO and pyridine (0.1%) used to prepare stock solutions was also tested, in order to identify the solvent activity. All measurements were performed in triplicate and data were presented as mean ± standard deviation.

[3] = system: SKBR-3 human breast cancer cell line; assay: Alamar blue cell viability assay; format: cell-based; conditions: 48 h treatment, 10 µM, relative to untreated control
Procedure: as §1, §2, §3

[4] = system: NCI-H1573 lung adenocarcinoma cell line; assay: Alamar blue cell viability assay; format: cell-based; conditions: 48 h treatment, 10 µM, relative to untreated control
Procedure: as §1, §2, §3

[5] = system: MCF-7 human breast cancer cell line; assay: Alamar blue cell viability assay; format: cell-based; conditions: 48 h treatment, 10 µM, relative to untreated control
Procedure: as §1, §2, §3

[6] = system: Staphylococcus aureus, ATCC 25923; assay: Antibacterial activity, serial dilutions in liquid broth (MIC/MBC); format: cell-based; conditions: S. aureus (G +)
Description: (§4) All synthesized complexes and the ligand were screened for their in vitro antibacterial activity against Gram-positive bacteria (Staphylococcus aureus), Gram-negative bacteria (Escherichia coli, Klebsiella pneumoniae) and antifungal activity (Candida albicans) strains using the paper disc diffusion technique (for the qualitative determination) and the serial dilutions in liquid broth method (for determination of MIC). Furacillinum and nystatine were used as standard drugs.
(§5) The antibacterial activity of complexes and also of their prototype furacilin has been determined under liquid nutritive environment (2% of peptonate bullion (pH 7.0)) using the successive dilutions method. Escherichia coli, Klebsiella pneumoniae, and Staphylococcus aureus stems were used as reference culture for the in vitro experiment. The dissolution of studied substances in dimethylformamide, microorganism cultivation, suspension obtaining, determination of minimal inhibition concentration (MIC) and minimal bactericide concentration (MBC) have been carried out according to the method previously reported.

[7] = system: Klebsiella pneumoniae, ATCC 31,488; assay: as above; format: cell-based; conditions: K. pneumoniae (G −)
Description: as §4, §5

[8] = system: Escherichia coli, ATCC 25922; assay: as above; format: cell-based; conditions: E. coli (G −)
Description: as §4, §5

[9] = Qualitative solubility in organic solvents; format: physicochemical
[10] = system: Candida albicans; assay: Antifungal (antimycotic) activity, liquid Sabouraud medium (MIC/MBC); format: cell-based; conditions: C. albicans
Description: as §4
Antimycotic properties of the complexes were investigated in vitro on laboratory stem Candida albicans. The activity has been determined in a liquid Sabouraud nutritive environment (pH 6.8). The inoculates were prepared from fungi stems which were harvested over 3–7 days. Their concentration in suspension is (2–4) × 10^6 colonies form unities in milliliter. Sowings for levures and micelles were incubated at 37 °C during 7 and 14 days, respectively.

[11] = Solubility in compendial aqueous media; format: physicochemical; conditions: 37 °C, 30 min, mean ± standard deviation, n = 3
Procedure: Solubility assessment was conducted in compendial aqueous solutions prepared according to United States Pharmacopoeia USP39/NF34): hydrochloric acid 0.1 N pH 1.2, acetate buffer pH 4.5 and phosphate buffer 6.8. These buffer systems are routinely used for screening of drug dissolution testing and they simulate the pH values of proximal gastrointestinal regions. The standard samples were prepared by diluting the stock solution of 80 µg/mL in dimethyl sulfoxide (with 0.2% pyridine, v/v) with corresponding media. The reagents were of analytical grade and used as received.
The assay was performed using a SpectraMax Plus 84 Plate reader reader (Sunnyvale, CA, USA), Molecular Devices LLC (US), equiped with SoftMax software version 6.4.2 (Sunnyvale, CA, USA). Separate plates were loaded with standard solutions in nine concentrations (0.2 to 80 µg/mL). For evaluation of the aqueous solubility, the samples were prepared in triplicate by adding 10 µL of the stock solution to the wells loaded with 190 µL of each buffer, using MultiScreen HTS plates (PCF, code MSSLBPC, Merck Millipore, Darmstadt, Germany). After 30 minutes of incubation at 37 ± 0.5 °C under agitation (250 rpm, IKA KS 4000 ic control, IKA, Staufen, Germany), the plates were filtrated under vacuum using a Vac-Man 96 Vacuum manifold (Promega Corporation, Madison, WI, USA). The solutions were collected in V-bottom polypropylene 96-well microplates (Greiner Bio-One, Kremsmünster, Austria). Volumes of 100 µL were transferred to UV-Star 96-well microplate with flat bottom (Chimney well, Grained Bio-One) and diluted by addition of 100 µL of the corresponding medium. The absorbance corresponding to each well was determined at fixed wavelengths: 280, 300, 320, 340, 360 and 800 nm. The reduced value of absorbance, calculated by the sum of the values recorded at the six wavelengths, were used for the calibration curve and subsequent determination of concentration in each solubility sample.

[12] = Hydrochloric Acid 0.1 N (pH = 1.2)

Row | SMILES | LC50 ([1]; incubation period 24 h) [µM] | LC50 ([1]; incubation period 48 h) [µM] | Viability % [2] [%] | Viability % [3] [%] | Viability % [4] [%] | Viability % [5] [%] | MBC [6] [mg/L] | MIC [6] [mg/L] | MBC [7] [mg/L] | MIC [7] [mg/L] | MBC [8] [mg/L] | MIC [8] [mg/L] | solubility in organic solvents (qualitative) [9] | MBC [10] [mg/L] | MIC [10] [mg/L] | solubility in compendial media ([11]; Acetate Buffer (pH = 4.5)) [µg/mL] | solubility in compendial media [11, 12] [µg/mL] | solubility in compendial media ([11]; Phosphate Buffer (pH = 6.8)) [µg/mL]
1 | [Cl][Cu][Cl] [CuCl2] | 4.23 | 0.97 |  |  |  |  |  |  |  |  |  |  |  |  |  |  |  | 
2 | COc1cccc(C=NNC(=O)c2ccncc2)c1[O-].COc1cccc(C=NNC(=O)c2ccncc2)c1[O-].[Zn+2] [complex 6, [Zn(L)2]] |  |  | 71.66 | 61.43 | 33.77 | 17.72 | 125 | 63 | 250 | 250 | 250 | 125 | soluble in pyridine, DMF and DMSO, and is partially soluble in ethanol, methanol, acetonitrile, acetone | 125 | 125 | 1.56 ± 0.82 | 1.65 ± 0.06 | <0.2
3 | COc1cccc(C=NNC(=O)c2ccncc2)c1[O-].O.O.[Cl-].[Cu+2] [complex 1, [Cu(L)(Cl)]·2H2O] | 394 | 69.5 | 84.43 | 25.24 |  | 2.47 | 0.03 | 0.015 | 500 | 500 | 500 | 500 | soluble in acetone, acetonitrile, DMF and DMSO, and is partially soluble in ethanol and methanol | 15 | 7 | 1.89 ± 0.20 | 2.34 ± 0.28 | <0.2
4 | [Cu+2].[O-][Cl+3]([O-])([O-])[O-].[O-][Cl+3]([O-])([O-])[O-] [Cu(ClO4)2] | 0.39 |  |  |  |  |  |  |  |  |  |  |  |  |  |  |  |  | 
5 | [Cl][Pt-2]([Cl])([Cl])[Cl].[K+].[K+] [K2PtCl4] | 27.7 | 5.63 |  |  |  |  |  |  |  |  |  |  |  |  |  |  |  | 
6 | COc1cccc(C=NNC(=O)c2ccncc2)c1[O-].O.[Cu+2].[O-][Cl+3]([O-])([O-])[O-] [complex 4, [Cu(L)(ClO4)]·H2O] |  |  | 0.70 | 48.72 | 10.05 | 3.43 | 0.7 | 0.7 | 500 | 250 | 500 | 250 | soluble in pyridine and is partially soluble in ethanol, methanol, acetonitrile, acetone, DMF and DMSO | 0.7 | 0.7 | 1.67 ± 0.28 | 0.82 ± 0.6 | <0.2
7 | NC(=O)N/N=C/c1ccc([N+](=O)[O-])o1 [Furacillinum, reference compound] |  |  |  |  |  |  | 9.35 (≈ 47.2 µM) | 9.35 (≈ 47.2 µM) | >300 | >300 | 37.5 (≈ 189 µM) | 18.7 (≈ 94.4 µM) |  |  |  |  |  | 
